Data: patent US10906873B2, “Substituted cyclic amides as herbicides” (FMC Corporation, priority 2015, dated 2021)

What was measured:
Assay type in all cases: in vivo
corn (Zea mays) = experiment: Test A postemergence, corn; details: 0 to 100 scale
From the text: (§1) Seeds of plant species selected from barnyardgrass (Echinochloa crus-galli), crabgrass (large crabgrass, Digitaria sanguinalis), kochia (Kochia scoparia), ragweed (common ragweed, Ambrosia elatior), morningglory (Ipomoea spp.), velvetleaf (Abutilon theophrasti), ryegrass, It. (Italian ryegrass, Lolium multiflorum), foxtail, giant (giant foxtail, Setaria faberii), wheat (Triticum aestivum), corn (Zea mays), and pigweed (Amaranthus retroflexus), were planted into a blend of loam soil and sand and treated preemergence with a directed soil spray using test chemicals formulated in a non-phytotoxic solvent mixture which included a surfactant. At the same time, plants selected from these crop and weed species and also blackgrass (Alopecurus myosuroides), and galium (catchweed bedstraw, Galium aparine), were planted in pots containing the same blend of loam soil and sand and treated with postemergence applications of test chemicals formulated in the same manner. Plants ranged in height from 2 to 10 cm and were in the one- to two-leaf stage for the postemergence treatment. Treated plants and untreated controls were maintained in a greenhouse for approximately 10 d, after which time all treated plants were compared to untreated controls and visually evaluated for injury. Plant response ratings, summarized in Table A, are based on a 0 to 100 scale where 0 is no effect and 100 is complete control. A dash (-) response means no test result.

[1] = tested on: ragweed (common ragweed, Ambrosia elatior); experiment: Test A postemergence, ragweed; details: 0 to 100 scale
From the text: as §1

[2] = tested on: blackgrass (Alopecurus myosuroides); experiment: Test A postemergence, blackgrass; details: 0 to 100 scale
From the text: as §1

[3] = tested on: ducksalad (Heteranthera limosa); experiment: Test B flooded paddy test, ducksalad; details: Flood, 500 g ai/ha; scale of 0 to 100 where 0 is no effect and 100 is complete control; 13 to 15 d
Method: (§2) Plant species in the flooded paddy test selected from rice (Oryza sativa), sedge, umbrella (small-flower umbrella sedge, Cyperus difformis), ducksalad (Heteranthera limosa), and barnyardgrass (Echinochloa crus-galli) were grown to the 2-leaf stage for testing. At time of treatment, test pots were flooded to 3 cm above the soil surface, treated by application of test compounds directly to the paddy water, and then maintained at that water depth for the duration of the test. Treated plants and controls were maintained in a greenhouse for 13 to 15 d, after which time all species were compared to controls and visually evaluated. Plant response ratings, summarized in Table B, are based on a scale of 0 to 100 where 0 is no effect and 100 is complete control. A dash (-) response means no test result.

kochia (Kochia scoparia) [4] = experiment: Test A preemergence, kochia; details: 0 to 100 scale
From the text: as §1

kochia (Kochia scoparia) [5] = experiment: Test A postemergence, kochia; details: 0 to 100 scale
From the text: as §1

[6] = tested on: foxtail, giant (giant foxtail, Setaria faberii); experiment: Test A postemergence, foxtail, giant; details: 0 to 100 scale
From the text: as §1

[7] = tested on: foxtail, giant (giant foxtail, Setaria faberii); experiment: Test A preemergence, foxtail, giant; details: 0 to 100 scale
From the text: as §1

rice (Oryza sativa) = experiment: Test B flooded paddy test, rice; details: Flood, 500 g ai/ha; scale of 0 to 100 where 0 is no effect and 100 is complete control; 13 to 15 d
Method: as §2

[8] = tested on: barnyardgrass (Echinochloa crus-galli); experiment: Test A postemergence, barnyardgrass; details: 0 to 100 scale
From the text: as §1

[9] = tested on: barnyardgrass (Echinochloa crus-galli); experiment: Test A preemergence, barnyardgrass; details: 0 to 100 scale
From the text: as §1

[10] = tested on: pigweed (Amaranthus retroflexus); experiment: Test A postemergence, pigweed; details: 0 to 100 scale
From the text: as §1

[11] = tested on: ryegrass, It. (Italian ryegrass, Lolium multiflorum); experiment: Test A preemergence, ryegrass, It.; details: 0 to 100 scale
From the text: as §1

[12] = tested on: ragweed (common ragweed, Ambrosia elatior); experiment: Test A preemergence, ragweed; details: 0 to 100 scale
From the text: as §1

[13] = tested on: ryegrass, It. (Italian ryegrass, Lolium multiflorum); experiment: Test A postemergence, ryegrass, It.; details: 0 to 100 scale
From the text: as §1

[14] = tested on: wheat (Triticum aestivum); experiment: Test A postemergence, wheat; details: 0 to 100 scale
From the text: as §1

[15] = tested on: sedge, umbrella (small-flower umbrella sedge, Cyperus difformis); experiment: Test B flooded paddy test, sedge, umbrella; details: Flood, 500 g ai/ha; scale of 0 to 100 where 0 is no effect and 100 is complete control; 13 to 15 d
Method: as §2

[16] = tested on: barnyardgrass (Echinochloa crus-galli); experiment: Test B flooded paddy test, barnyardgrass; details: Flood, 500 g ai/ha; scale of 0 to 100 where 0 is no effect and 100 is complete control; 13 to 15 d
Method: as §2

[17] = tested on: galium (catchweed bedstraw, Galium aparine); experiment: Test A postemergence, galium; details: 0 to 100 scale
From the text: as §1

[18] = tested on: pigweed (Amaranthus retroflexus); experiment: Test A preemergence, pigweed; details: 0 to 100 scale
From the text: as §1

SMILES	Plant response rating, Corn (corn (Zea mays); 125 g ai/ha)	Plant response rating, Corn (corn (Zea mays); 500 g ai/ha)	Plant response rating, Ragweed ([1]; 125 g ai/ha)	Plant response rating, Ragweed ([1]; 500 g ai/ha)	Plant response rating, Blackgrass ([2]; 125 g ai/ha)	Plant response rating, Blackgrass ([2]; 500 g ai/ha)	Plant response rating, Ducksalad [3]	Plant response rating, Kochia (kochia (Kochia scoparia) [4]; 125 g ai/ha)	Plant response rating, Kochia (kochia (Kochia scoparia) [4]; 500 g ai/ha)	Plant response rating, Kochia (kochia (Kochia scoparia) [5]; 125 g ai/ha)	Plant response rating, Kochia (kochia (Kochia scoparia) [5]; 500 g ai/ha)	Plant response rating, Foxtail, Giant ([6]; 125 g ai/ha)	Plant response rating, Foxtail, Giant ([6]; 500 g ai/ha)	Plant response rating, Foxtail, Giant ([7]; 125 g ai/ha)	Plant response rating, Foxtail, Giant ([7]; 500 g ai/ha)	Plant response rating, Rice (rice (Oryza sativa))	Plant response rating, Barnyardgrass ([8]; 125 g ai/ha)	Plant response rating, Barnyardgrass ([8]; 500 g ai/ha)	Plant response rating, Barnyardgrass ([9]; 125 g ai/ha)	Plant response rating, Barnyardgrass ([9]; 500 g ai/ha)	other results
O=C1NCC(Cc2ccc(C(F)(F)F)cc2)C1C(=O)Nc1ccccc1C(F)(F)F (stereo not drawn) [Compound 6]	0	0	0	0	0	0	0	0	0	0	0	0	0	0	0	0	0	0	0	0	Plant response rating, Pigweed ([10]; 125 g ai/ha): 0; Plant response rating, Pigweed ([10]; 500 g ai/ha): 0; Plant response rating, Ryegrass, It. ([11]; 125 g ai/ha): 0; Plant response rating, Ryegrass, It. ([11]; 500 g ai/ha): 0; Plant response rating, Ragweed ([12]; 125 g ai/ha): 0; Plant response rating, Ragweed ([12]; 500 g ai/ha): 0; Plant response rating, Ryegrass, It. ([13]; 125 g ai/ha): 0; Plant response rating, Ryegrass, It. ([13]; 500 g ai/ha): 0; Plant response rating, Wheat ([14]; 125 g ai/ha): 0; Plant response rating, Wheat ([14]; 500 g ai/ha): 0; Plant response rating, Sedge, Umbrella [15]: 0; Plant response rating, Barnyardgrass [16]: 0; Plant response rating, Galium ([17]; 125 g ai/ha): 0; Plant response rating, Galium ([17]; 500 g ai/ha): 0; Plant response rating, Pigweed ([18]; 125 g ai/ha): 0; Plant response rating, Pigweed ([18]; 500 g ai/ha): 0
O=C1NCC(Cc2ccc(C(F)(F)F)cc2)C1C(=O)Nc1cccc(F)c1F (stereo not drawn) [Compound 7]	0	0	0	0	0	0	75	0	0	0	0	0	20	0	30	0	0	60	0	40	Plant response rating, Pigweed ([10]; 125 g ai/ha): 0; Plant response rating, Pigweed ([10]; 500 g ai/ha): 0; Plant response rating, Ryegrass, It. ([11]; 125 g ai/ha): 0; Plant response rating, Ryegrass, It. ([11]; 500 g ai/ha): 0; Plant response rating, Ragweed ([12]; 125 g ai/ha): 0; Plant response rating, Ragweed ([12]; 500 g ai/ha): 0; Plant response rating, Ryegrass, It. ([13]; 125 g ai/ha): 0; Plant response rating, Ryegrass, It. ([13]; 500 g ai/ha): 0; Plant response rating, Wheat ([14]; 125 g ai/ha): 0; Plant response rating, Wheat ([14]; 500 g ai/ha): 0; Plant response rating, Sedge, Umbrella [15]: 0; Plant response rating, Barnyardgrass [16]: 25; Plant response rating, Galium ([17]; 125 g ai/ha): 0; Plant response rating, Galium ([17]; 500 g ai/ha): 0; Plant response rating, Pigweed ([18]; 125 g ai/ha): 0; Plant response rating, Pigweed ([18]; 500 g ai/ha): 0
O=C1NCC(Cc2cccc(F)c2F)C1C(=O)Nc1cccc(F)c1F (stereo not drawn) [Compound 8]	0	0	0	0	0	0	0	0	0	0	0	0	0	0	50	0	0	0	0	0	Plant response rating, Pigweed ([10]; 125 g ai/ha): 0; Plant response rating, Pigweed ([10]; 500 g ai/ha): 0; Plant response rating, Ryegrass, It. ([11]; 125 g ai/ha): 0; Plant response rating, Ryegrass, It. ([11]; 500 g ai/ha): 0; Plant response rating, Ragweed ([12]; 125 g ai/ha): 0; Plant response rating, Ragweed ([12]; 500 g ai/ha): 0; Plant response rating, Ryegrass, It. ([13]; 125 g ai/ha): 0; Plant response rating, Ryegrass, It. ([13]; 500 g ai/ha): 0; Plant response rating, Wheat ([14]; 125 g ai/ha): 0; Plant response rating, Wheat ([14]; 500 g ai/ha): 0; Plant response rating, Sedge, Umbrella [15]: 0; Plant response rating, Barnyardgrass [16]: 0; Plant response rating, Galium ([17]; 125 g ai/ha): 0; Plant response rating, Galium ([17]; 500 g ai/ha): 0; Plant response rating, Pigweed ([18]; 125 g ai/ha): 0; Plant response rating, Pigweed ([18]; 500 g ai/ha): 0
